PubChem BioAssay AID248 (DTP/NCI, 2004)
Several values for one entry are separate records, joined by “and”; a condition that tells them apart may be missing. Equal entries are not always repeated. Toxic doses and inconclusive results are not listed.

System: L1210 leukemia ip in BDF1 mice, survival T/C
Test: NCI In Vivo Anticancer Drug Screen. Data for tumor model L1210 Leukemia (intraperitoneal) in B6D2F1 (BDF1) mice
Settings: higher = longer survival
Procedure, shortened: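 Tumor cells were implanted, animals were treated, and survival was followed. The result divides the treated measurement by the vehicle-control measurement.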

[1] = endpoint: mean survival time, dose: 25.0 mg/kg/injection, schedule: Q01DX009 (ip), vehicle: saline
[2] = endpoint: mean survival time, dose: 100.0 mg/kg/injection, schedule: Q01DX009 (ip), vehicle: saline
[3] = endpoint: mean survival time, dose: 222.0 mg/kg/injection, schedule: Q01DX Z (ip), vehicle: saline
[4] = endpoint: mean survival time, dose: 100.0 mg/kg/injection, schedule: Q01DX009 (ip), vehicle: saline with Tween-80
[5] = endpoint: mean survival time, dose: 100.0 mg/kg/injection, schedule: Q04DX003 (ip), vehicle: other
[6] = endpoint: mean survival time, dose: 200.0 mg/kg/injection, schedule: Q04DX003 (ip), vehicle: other
[7] = endpoint: mean survival time, dose: 400.0 mg/kg/injection, schedule: Q04DX003 (ip), vehicle: other
[8] = endpoint: mean survival time, dose: 100.0 mg/kg/injection, schedule: Q01DX001 (ip), vehicle: saline
[9] = endpoint: mean survival time, dose: 200.0 mg/kg/injection, schedule: Q01DX001 (ip), vehicle: saline
[10] = endpoint: mean survival time, dose: 400.0 mg/kg/injection, schedule: Q01DX001 (ip), vehicle: saline
[11] = endpoint: mean survival time, dose: 100.0 mg/kg/injection, schedule: Q04DX003 (ip), vehicle: Klucel (hydroxypropylcellulose) (HPC)
[12] = endpoint: mean survival time, dose: 200.0 mg/kg/injection, schedule: Q04DX003 (ip), vehicle: Klucel (hydroxypropylcellulose) (HPC)
[13] = endpoint: mean survival time, dose: 100.0 mg/kg/injection, schedule: Q04DX003 (ip), vehicle: saline
[14] = endpoint: mean survival time, dose: 200.0 mg/kg/injection, schedule: Q04DX003 (ip), vehicle: saline
[15] = endpoint: mean survival time, dose: 400.0 mg/kg/injection, schedule: Q04DX003 (ip), vehicle: saline
[16] = endpoint: mean survival time, dose: 50.0 mg/kg/injection, schedule: Q01DX009 (ip), vehicle: saline
[17] = endpoint: mean survival time, dose: 200.0 mg/kg/injection, schedule: Q01DX009 (ip), vehicle: saline

## O=C(OCC1OC(n2cnc3c(=S)nc[nH]c32)C(OC(=O)c2ccccc2)C1OC(=O)c1ccccc1)c1ccccc1 (stereo not drawn)
[1]
  T/C: 118 % of control
endpoint: mean survival time, dose: 25.0 mg/kg/injection, schedule: Q01DX Z (ip), vehicle: saline
  T/C: 109 % of control
endpoint: mean survival time, dose: 39.0 mg/kg/injection, schedule: Q01DX Z (ip), vehicle: carboxymethylcellulose (CMC)
  T/C: 124 % of control
endpoint: mean survival time, dose: 50.0 mg/kg/injection, schedule: Q01DX Z (ip), vehicle: saline
  T/C: 117 % of control
endpoint: mean survival time, dose: 88.0 mg/kg/injection, schedule: Q01DX Z (ip), vehicle: carboxymethylcellulose (CMC)
  T/C: 118 % of control
[2]
  T/C: 168 % of control
endpoint: mean survival time, dose: 110.0 mg/kg/injection, schedule: Q01DX009 (ip), vehicle: saline
  T/C: 123 % of control
endpoint: mean survival time, dose: 220.0 mg/kg/injection, schedule: Q01DX009 (ip), vehicle: saline
  T/C: 150 % of control
[3]
  T/C: 95 % of control
endpoint: mean survival time, dose: 300.0 mg/kg/injection, schedule: Q01DX Z (ip), vehicle: carboxymethylcellulose (CMC)
  T/C: 150 % of control and 168 % of control
endpoint: mean survival time, dose: 300.0 mg/kg/injection, schedule: Q01DX Z (ip), vehicle: methylcellulose (MC)
  T/C: 112 % of control
endpoint: mean survival time, dose: 450.0 mg/kg/injection, schedule: Q01DX Z (ip), vehicle: carboxymethylcellulose (CMC)
  T/C: 171 % of control
endpoint: mean survival time, dose: 450.0 mg/kg/injection, schedule: Q01DX Z (ip), vehicle: methylcellulose (MC)
  T/C: 97 % of control
endpoint: mean survival time, dose: 600.0 mg/kg/injection, schedule: Q01DX001 (ip), vehicle: saline
  T/C: 120 % of control
endpoint: mean survival time, dose: 675.0 mg/kg/injection, schedule: Q01DX Z (ip), vehicle: carboxymethylcellulose (CMC)
  T/C: 100 % of control and 109 % of control
endpoint: mean survival time, dose: 1007.0 mg/kg/injection, schedule: Q01DX Z (ip), vehicle: carboxymethylcellulose (CMC)
  T/C: 93 % of control
endpoint: mean survival time, dose: 1510.0 mg/kg/injection, schedule: Q01DX Z (ip), vehicle: carboxymethylcellulose (CMC)
  T/C: 90 % of control

## Nc1nc(N)c2c(n1)Nc1ccc(Cl)nc1S2
endpoint: mean survival time, dose: 75.0 mg/kg/injection, schedule: Q01DX009 (ip), vehicle: Klucel (hydroxypropylcellulose) (HPC)
  T/C: 93 % of control
endpoint: mean survival time, dose: 150.0 mg/kg/injection, schedule: Q01DX009 (ip), vehicle: Klucel (hydroxypropylcellulose) (HPC)
  T/C: 95 % of control

## C=CCOC(=O)CCCCC(=O)OCC=C
[4]
  T/C: 94 % of control

## CCC12CC(Br)C(C1)OC2=O (stereo not drawn)
[5]
  T/C: 100 % of control
[6]
  T/C: 95 % of control
[7]
  T/C: 94 % of control

## Cc1cc(=O)c2cc(Cl)cc(Br)c2[nH]1
[8]
  T/C: 94 % of control
[9]
  T/C: 96 % of control
[10]
  T/C: 103 % of control

## C=C(C)COC(=O)Nc1cccc(O)c1
endpoint: mean survival time, dose: 100.0 mg/kg/injection, schedule: Q01DX001 (ip), vehicle: saline + alcohol
  T/C: 96 % of control
endpoint: mean survival time, dose: 200.0 mg/kg/injection, schedule: Q01DX001 (ip), vehicle: saline + alcohol
  T/C: 96 % of control

## CC(C)(C)NCC(CN(CC(CNC(C)(C)C)C(=O)c1ccccc1)C(C)(C)C)C(=O)c1ccccc1 (stereo not drawn)
endpoint: mean survival time, dose: 12.5 mg/kg/injection, schedule: Q01DX009 (ip), vehicle: Klucel (hydroxypropylcellulose) (HPC)
  T/C: 104 % of control
endpoint: mean survival time, dose: 25.0 mg/kg/injection, schedule: Q01DX009 (ip), vehicle: Klucel (hydroxypropylcellulose) (HPC)
  T/C: 101 % of control
endpoint: mean survival time, dose: 50.0 mg/kg/injection, schedule: Q01DX009 (ip), vehicle: Klucel (hydroxypropylcellulose) (HPC)
  T/C: 106 % of control
[11]
  T/C: 93 % of control

## CCCCN(CCCCS(=O)(=O)O)c1ccc(N=Nc2cc(Cl)ccc2Cl)cc1
[11]
  T/C: 94 % of control
[12]
  T/C: 105 % of control

## O=c1[nH]cnc2nc(I)[nH]c12
[8]
  T/C: 104 % of control
[9]
  T/C: 98 % of control
[10]
  T/C: 98 % of control

## CC(=N)N
[13]
  T/C: 114 % of control
[14]
  T/C: 90 % of control
[15]
  T/C: 111 % of control

## O=C1c2cccc3cccc(c23)C(=O)N1c1ncn[nH]1
endpoint: mean survival time, dose: 50.0 mg/kg/injection, schedule: Q01DX001 (ip), vehicle: saline
  T/C: 94 % of control
[8]
  T/C: 107 % of control
[10]
  T/C: 102 % of control

## COc1cc(C(=O)Nc2ccc(NC3=NCCN3)cc2)cc(C(=O)Nc2ccc(NC3=NCCN3)cc2)c1
endpoint: mean survival time, dose: 1.9 mg/kg/injection, schedule: Q01DX Z (ip), vehicle: methylcellulose (MC)
  T/C: 104 % of control
endpoint: mean survival time, dose: 3.8 mg/kg/injection, schedule: Q01DX Z (ip), vehicle: methylcellulose (MC)
  T/C: 99 % of control
endpoint: mean survival time, dose: 7.5 mg/kg/injection, schedule: Q01DX Z (ip), vehicle: methylcellulose (MC)
  T/C: 113 % of control
endpoint: mean survival time, dose: 15.0 mg/kg/injection, schedule: Q01DX Z (ip), vehicle: methylcellulose (MC)
  T/C: 118 % of control

## ClC12CCC(Cl)(CC1)C2(Cl)Cl
[1]
  T/C: 95 % of control
[16]
  T/C: 103 % of control
[2]
  T/C: 96 % of control
[13]
  T/C: 98 % of control
[14]
  T/C: 95 % of control
[15]
  T/C: 98 % of control

## CC1CNC(=O)N1 (stereo not drawn)
[13]
  T/C: 102 % of control
[14]
  T/C: 101 % of control
[3]
  T/C: 97 % of control
endpoint: mean survival time, dose: 333.0 mg/kg/injection, schedule: Q01DX Z (ip), vehicle: saline
  T/C: 111 % of control
[15]
  T/C: 96 % of control
endpoint: mean survival time, dose: 500.0 mg/kg/injection, schedule: Q01DX Z (ip), vehicle: saline
  T/C: 103 % of control

## O=C(NC(CSSCC(NC(=O)OCc1ccccc1)C(=O)O)C(=O)O)OCc1ccccc1 (stereo not drawn)
endpoint: mean survival time, dose: 85.0 mg/kg/injection, schedule: Q01DX009 (ip), vehicle: other
  T/C: 98 % of control
[2]
  T/C: 94 % of control and 98 % of control
[5]
  T/C: 98 % of control
[13]
  T/C: 90 % of control
endpoint: mean survival time, dose: 135.0 mg/kg/injection, schedule: Q01DX009 (ip), vehicle: other
  T/C: 88 % of control
endpoint: mean survival time, dose: 200.0 mg/kg/injection, schedule: Q01DX009 (ip), vehicle: other
  T/C: 97 % of control
[17]
  T/C: 118 % of control and 92 % of control
[6]
  T/C: 88 % of control
[14]
  T/C: 102 % of control
endpoint: mean survival time, dose: 300.0 mg/kg/injection, schedule: Q01DX009 (ip), vehicle: other
  T/C: 99 % of control
endpoint: mean survival time, dose: 400.0 mg/kg/injection, schedule: Q01DX009 (ip), vehicle: saline
  T/C: 94 % of control and 104 % of control
[7]
  T/C: 96 % of control
[15]
  T/C: 101 % of control

## O=C(O)c1ccc(-c2ccccc2)cc1
endpoint: mean survival time, dose: 50.0 mg/kg/injection, schedule: Q01DX Z (ip), vehicle: carboxymethylcellulose (CMC)
  T/C: 92 % of control
endpoint: mean survival time, dose: 100.0 mg/kg/injection, schedule: Q01DX009 (ip), vehicle: Klucel (hydroxypropylcellulose) (HPC)
  T/C: 95 % of control
endpoint: mean survival time, dose: 100.0 mg/kg/injection, schedule: Q01DX Z (ip), vehicle: carboxymethylcellulose (CMC)
  T/C: 93 % of control
[11]
  T/C: 104 % of control
endpoint: mean survival time, dose: 200.0 mg/kg/injection, schedule: Q01DX009 (ip), vehicle: Klucel (hydroxypropylcellulose) (HPC)
  T/C: 98 % of control
endpoint: mean survival time, dose: 200.0 mg/kg/injection, schedule: Q01DX Z (ip), vehicle: carboxymethylcellulose (CMC)
  T/C: 97 % of control
[12]
  T/C: 93 % of control
endpoint: mean survival time, dose: 400.0 mg/kg/injection, schedule: Q04DX003 (ip), vehicle: Klucel (hydroxypropylcellulose) (HPC)
  T/C: 104 % of control

## Cc1ccccc1C(O)C(Cl)(Cl)Cl (stereo not drawn)
endpoint: median survival time, dose: 50.0 mg/kg/injection, schedule: Q04DX003 (ip), vehicle: Klucel (hydroxypropylcellulose) (HPC)
  T/C: 118 % of control
endpoint: median survival time, dose: 200.0 mg/kg/injection, schedule: Q04DX003 (ip), vehicle: Klucel (hydroxypropylcellulose) (HPC)
  T/C: 157 % of control
endpoint: median survival time, dose: 400.0 mg/kg/injection, schedule: Q04DX003 (ip), vehicle: Klucel (hydroxypropylcellulose) (HPC)
  T/C: 204 % of control

## O=c1[nH]c2ccc(I)cc2c(=O)o1
[4]
  T/C: 100 % of control
endpoint: mean survival time, dose: 200.0 mg/kg/injection, schedule: Q01DX009 (ip), vehicle: saline with Tween-80
  T/C: 100 % of control
endpoint: mean survival time, dose: 400.0 mg/kg/injection, schedule: Q01DX009 (ip), vehicle: saline with Tween-80
  T/C: 101 % of control

## CCOC(=O)NCCN(C)C
[16]
  T/C: 105 % of control
[2]
  T/C: 102 % of control
[13]
  T/C: 99 % of control
[17]
  T/C: 108 % of control
[14]
  T/C: 102 % of control

## CCCCCC[Si](Cl)(CCCCCC)CCCCCC
[8]
  T/C: 87 % of control
[9]
  T/C: 98 % of control

## Cc1ccccc1N1CCN(c2c3c(nc4ccccc24)CCCCC3)CC1
[8]
  T/C: 93 % of control
[10]
  T/C: 93 % of control

## c1ccc([C]([Hg][C](=C(c2ccccc2)c2ccccc2)c2ccccc2)=C(c2ccccc2)c2ccccc2)cc1
endpoint: mean survival time, dose: 50.0 mg/kg/injection, schedule: Q01DX001 (ip), vehicle: Klucel (hydroxypropylcellulose) (HPC)
  T/C: 95 % of control
endpoint: mean survival time, dose: 100.0 mg/kg/injection, schedule: Q01DX001 (ip), vehicle: Klucel (hydroxypropylcellulose) (HPC)
  T/C: 88 % of control
endpoint: mean survival time, dose: 200.0 mg/kg/injection, schedule: Q01DX001 (ip), vehicle: Klucel (hydroxypropylcellulose) (HPC)
  T/C: 90 % of control
